Source: patent US8012959B2, “Diaminopyrimidinecarboxamide derivative” (Astellas Pharma Inc., priority 2002, dated 2011)
Structures can show the parent of a compound that is named as a salt.

Tests used:
STAT 6 [1] = target: T1, STAT 6 (Mus musculus, UniProt P52633); experiment: STAT 6-dependent reporter activity (IL-4-stimulated CI/FW4 luciferase reporter cell); format: cell-based, human; conditions: for inhibition at 0.1 µM / Inh (%) 0.1 μM: inhibition ratio at 0.1 μM compound; for inhibition at 0.1 µM / inhibition at 1 µM / Inh (%) 0.1 μM / Inh (%) 1 μM: IL-4-stimulated CI/FW4 cell, luciferase; for inhibition at 1 µM / Inh (%) 1 μM: inhibition ratio at 1 μM compound; for inhibition of STAT 6-dependent reporter activity (activity similar to the compounds of Table 26): CI/FW4 cell, 10 ng/ml human IL-4, luciferase
T1 construct: An STAT 6 reporter cell CI/FW4 was constructed by the above operation; endogenous in cells; host or cells: CI/FW4 (FW4 cell stably carrying the pGL2-CI/bs luciferase reporter)
T1 sequence (P52633 1-837): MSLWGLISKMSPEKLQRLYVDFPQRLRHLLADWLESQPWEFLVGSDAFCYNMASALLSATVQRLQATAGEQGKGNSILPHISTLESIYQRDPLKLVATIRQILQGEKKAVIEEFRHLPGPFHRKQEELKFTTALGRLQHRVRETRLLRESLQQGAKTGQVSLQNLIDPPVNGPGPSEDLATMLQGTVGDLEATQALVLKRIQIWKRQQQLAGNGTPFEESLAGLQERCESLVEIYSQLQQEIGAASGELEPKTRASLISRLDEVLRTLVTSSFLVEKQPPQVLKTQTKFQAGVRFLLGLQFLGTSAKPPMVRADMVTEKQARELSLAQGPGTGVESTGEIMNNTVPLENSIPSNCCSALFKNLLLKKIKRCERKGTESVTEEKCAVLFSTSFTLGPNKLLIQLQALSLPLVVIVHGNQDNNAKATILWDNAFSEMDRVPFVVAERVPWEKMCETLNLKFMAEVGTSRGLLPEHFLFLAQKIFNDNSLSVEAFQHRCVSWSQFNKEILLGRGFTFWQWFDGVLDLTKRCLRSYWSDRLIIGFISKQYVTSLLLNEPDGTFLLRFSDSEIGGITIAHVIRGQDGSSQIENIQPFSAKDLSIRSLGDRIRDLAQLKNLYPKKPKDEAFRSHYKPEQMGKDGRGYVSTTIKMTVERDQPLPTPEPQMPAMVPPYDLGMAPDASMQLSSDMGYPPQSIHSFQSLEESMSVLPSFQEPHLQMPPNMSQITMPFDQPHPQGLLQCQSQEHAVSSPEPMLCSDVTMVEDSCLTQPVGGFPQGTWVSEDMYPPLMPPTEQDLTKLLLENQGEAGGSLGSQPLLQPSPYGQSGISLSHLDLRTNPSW
Method: Measurement of STAT 6-Dependent Reporter Activity 1) Construction of STAT 6 Reactive Reporter Plasmid A STAT 6 reporter plasmid pGL2-CI was prepared by the following method. […] Also, […] sequence DNA molecules (SEQ ID NOs:3 and 4) contained in the adenovirus major late promoter were annealed and inserted into BglII and HindIII sites of the same vector. Thereafter, pGL2-CI/bs was constructed by inserting the blasticidin resistance gene of pUCSV-BD (Funakoshi) into BamHI site of the constructed pGL2-CI. 2) Construction of STAT 6 Reporter Cell Gene transfer of […] into a human IL-4 reactive cell FW4 cell (Mol. Cell. Biol., 14: 5433-5440) was carried out by the electroporation method (320 V, 960 μF/0.4 cm cuvette (Nippon Bio-Rad Laboratories)), and 6 μg/ml of blasticidin (Funakoshi) was added 40 hours thereafter to select a resistant cell. Confirmation of constant transfer of the reporter plasmid was carried out by detecting luciferase induce by IL-4 stimulation. An STAT 6 reporter cell CI/FW4 was constructed by the above operation. 3) STAT Reporter Assay Using CI/FW4 Cell Stimulation of the CI/FW4 cell (1×10^4 cells/0.1 ml) with 10 ng/ml of human IL-4 (Genzyme Techne) was carried out using a white 96 well plate (Nunc). In the case of the evaluation of compounds, compound dilutions were added to the wells before inoculating the cells into the 96 well plate. […] Thereafter, 50 μl of a luciferase substrate solution (10 mM Tris-HCl pH 7.8, 5 mM luciferin, 2 mM coenzyme A, 2 mM ATP, 0.5 mM MgCl2 and 2 mM Mg(OH)2) was added, followed by stirring for 1 minute. Then, the luciferase activity was measured using ML3000 luminometer (Dynatech Laboratories, Inc). Inhibitory activities of tested compounds were evaluated in which the luminescence intensity (relative light unit: […] The results are shown in the following Table 26.

STAT 6 [2] = target: T2, STAT 6 (Homo sapiens, UniProt P42226); experiment: STAT 6 tyrosine phosphorylation in IL-4-stimulated H292 cell (western blotting); format: cell-based; conditions: 1 μM compound, 10 ng/ml human IL-4, disappearance of the about 110 kDa band
T2 construct: host or cells: H292
T2 sequence (P42226 1-847): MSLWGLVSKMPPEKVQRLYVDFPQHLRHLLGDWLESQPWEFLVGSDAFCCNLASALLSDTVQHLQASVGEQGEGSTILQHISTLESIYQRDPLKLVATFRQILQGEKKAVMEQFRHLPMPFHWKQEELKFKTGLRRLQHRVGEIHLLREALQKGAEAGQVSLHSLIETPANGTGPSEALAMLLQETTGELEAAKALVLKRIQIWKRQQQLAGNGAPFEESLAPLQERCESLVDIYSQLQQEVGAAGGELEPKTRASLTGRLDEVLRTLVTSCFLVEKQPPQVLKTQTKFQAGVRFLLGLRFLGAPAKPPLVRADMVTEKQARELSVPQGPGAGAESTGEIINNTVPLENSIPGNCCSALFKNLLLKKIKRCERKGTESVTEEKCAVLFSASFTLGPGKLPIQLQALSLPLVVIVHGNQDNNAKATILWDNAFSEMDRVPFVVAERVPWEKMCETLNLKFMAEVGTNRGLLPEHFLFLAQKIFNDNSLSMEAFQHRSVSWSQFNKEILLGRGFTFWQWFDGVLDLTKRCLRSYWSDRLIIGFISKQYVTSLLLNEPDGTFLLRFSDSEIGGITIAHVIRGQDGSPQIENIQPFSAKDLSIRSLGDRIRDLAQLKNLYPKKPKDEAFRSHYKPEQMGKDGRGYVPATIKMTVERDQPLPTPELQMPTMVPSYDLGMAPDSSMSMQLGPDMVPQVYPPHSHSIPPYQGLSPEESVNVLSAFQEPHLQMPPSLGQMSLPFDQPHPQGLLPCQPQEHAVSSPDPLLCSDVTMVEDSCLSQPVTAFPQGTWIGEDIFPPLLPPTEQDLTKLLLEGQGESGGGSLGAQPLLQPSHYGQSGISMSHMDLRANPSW
Method: Measurement of STAT 6 Tyrosine Phosphorylation
The H292 cell (ATCC) (5×10^5 cells/0.5 ml) was inoculated into a 12 well plate (IWAKI) and cultured overnight, and then stimulation with 10 ng/ml of human IL-4 (Genzyme techne) was carried out. In the case of the evaluation of compounds, compound dilutions were added to the wells 20 minutes before the IL-4 stimulation. Also, regarding the dilution of compounds, dilution was carried out using 10% FBS-containing RPMI 1640 such that the final concentration of DMSO in which each compound was dissolved became 0.1% or less. This was washed three times with ice-cooled physiological phosphate buffer 20 minutes after the IL-4 stimulation. After the washing, 100 μl/well of a cell lysis solution (TNE buffer: 10 mM Tris-HCl pH 7.8, 1% NP-40, 0.15 M NaCl, 1 mM EDTA, 10 μg/ml aprotinin, 1 mM NaF and 1 mM Na3VO4) was added. The cell lysate was recovered, and 15 μl thereof was subjected to western blotting after SDS electrophoresis using an anti-tyrosine phosphorylated STAT 6 antibody (Cell Signaling). Whether or not the tyrosine phosphorylation band of about 110 kDa is disappeared, which is IL-4 stimulation-dependently detected, was judged. Also, uniform transference of the STAT 6 protein was confirmed using the same transfer membrane by western blotting which used an anti-STAT 6 antibody (SantaCruz).

| inhibition at 0.1 µM (STAT 6 [1]) [%] | inhibition at 1 µM (STAT 6 [1]) [%] | Inh (%) 0.1 μM (STAT 6 [1]) [%] | Inh (%) 1 μM (STAT 6 [1]) [%] | inhibition of STAT 6-dependent reporter activity (activity similar to the compounds of Table 26) (STAT 6 [1]) | inhibition of STAT 6 tyrosine phosphorylation (STAT 6 [2]) | Compound |
| --- | --- | --- | --- | --- | --- | --- |
| 48 | 96 | – | – | – | – | CNC(=O)c1cnc(NCCc2cc(Cl)c(O)c(Cl)c2)nc1Nc1cccc(C)c1 [Example 2, 2-{[2-(3,5-dichloro-4-hydroxyphenyl)ethyl]amino}-N-methyl-4-[(3-methylphenyl)amino]pyrimidine-5-carboxamide] |
| – | – | – | – | good activity | – | NC(=O)c1cnc(Nc2ccc(N3CCOCC3)cc2)nc1NCc1c(F)cccc1Cl [Example 58] |
| – | – | 94 | 100 | – | completely inhibited | CN(C)CC(=O)N1CCN(c2ccc(Nc3ncc(C(N)=O)c(NCc4ccccc4)n3)cc2)CC1.Cl.Cl [Example 148] |
| – | – | 91 | 100 | – | – | CN(CC1CN(c2ccc(Nc3ncc(C(N)=O)c(NCc4ccccc4)n3)cc2)CCO1)S(C)(=O)=O.Cl (stereo not drawn) [Example 180] |
| – | – | 100 | 100 | – | completely inhibited | CCOC(=O)CN1CCN(c2ccc(Nc3ncc(C(N)=O)c(NCc4c(F)ccc(F)c4F)n3)cc2)CC1 [Example 189] |
| – | – | 100 | 100 | – | completely inhibited | NC(=O)c1cnc(Nc2ccc(N3CCN(CC(=O)O)CC3)cc2)nc1NCc1c(F)ccc(F)c1F [Example 190] |
| – | – | 100 | 100 | – | completely inhibited | Cl.NC(=O)c1cnc(Nc2ccc(N3CCCOCC3)cc2)nc1NCc1c(F)ccc(F)c1F [Example 191] |
| – | – | 100 | 100 | – | completely inhibited | COC1CCCN(c2ccc(Nc3ncc(C(N)=O)c(NCc4c(F)ccc(F)c4F)n3)cc2)C1.Cl.Cl (stereo not drawn) [Example 192] |
| – | – | 100 | 100 | – | completely inhibited | Cl.Cl.NC(=O)CN1CCN(c2ccc(Nc3ncc(C(N)=O)c(NCc4c(F)ccc(F)c4F)n3)cc2)CC1 [Example 201] |
| – | – | 25 | 100 | – | – | NC(=O)c1cnc(Nc2ccc(OC3OC(CO)C(O)C(O)C3O)cc2)nc1NCc1c(F)ccc(F)c1F (stereo not drawn) [Example 233] |
| – | – | – | – | good activity | – | NC(=O)c1cnc(Nc2ccc(N3CCOCC3)c(F)c2)nc1NCc1ccccc1 [Example 239] |
| – | – | 97 | 100 | – | – | NC(=O)c1cnc(Nc2ccc(N3CCOCC3)c(F)c2)nc1NCc1c(F)cccc1F [Example 244] |
| 67 | 100 | – | – | – | – | Cc1cccc(Nc2nc(NCCc3ccc(O)c(Br)c3)ncc2C(N)=O)c1 [Production Example 1, 2-{[2-(3-bromo-4-hydroxyphenyl)ethyl]amino}-4-[(3-methylphenyl)amino]pyrimidine-5-carboxamide] |
| 33 | 91 | – | – | – | – | Cc1cccc(Nc2nc(Nc3ccc(CN(C)C)cc3)ncc2C(N)=O)c1 [Production Example 9, 2-({4-[(dimethylamino)methyl]phenyl}amino)-4-[(3-methylphenyl)amino]pyrimidine-5-carboxamide dihydrochloride] |
| 91 | 100 | – | – | – | – | NC(=O)c1cnc(Nc2ccc(N3CCOCC3)cc2)nc1NC1CCCCC1 [Production Example 12, 4-cyclohexylamino-2-[(4-morpholinophenyl)amino]pyrimidine-5-carboxamide] |

| Compound | inhibition at 0.1 µM (STAT 6 [1]) [%] | inhibition at 1 µM (STAT 6 [1]) [%] | Inh (%) 0.1 μM (STAT 6 [1]) [%] | Inh (%) 1 μM (STAT 6 [1]) [%] | inhibition of STAT 6-dependent reporter activity (activity similar to the compounds of Table 26) (STAT 6 [1]) | inhibition of STAT 6 tyrosine phosphorylation (STAT 6 [2]) |
| --- | --- | --- | --- | --- | --- | --- |
| NC(=O)c1cnc(Nc2ccc(N3CCOCC3)cc2)nc1NCc1cc(Cl)ccc1F [Example 39] | – | – | 100 | 100 | – | – |
